The text below walks through data of US8697747B2, “Enhancing coagulation or reducing fibrinolysis” (THe UAB Research Foundation, priority 2009, dated 2014).

In the test the test system is prothrombin deficient plasma. Kind of test: Thrombelastography in prothrombin deficient plasma with purified prothrombin. The format is biochemical, human. Conditions: mean ± SD. The protocol:
Plasma types, purified proteins and compounds. Prothrombin deficient plasma (George King Bio-Medical, Overland Park, Kans.) anticoagulated with sodium citrate was utilized for experimentation concerning the effects of CORM-2 on prothrombin. Purified prothrombin (Enzyme Research Laboratories, South Bend, Ind.) that was 95% pure (10.4 mg/mL, 11.1 U/mg, suspended in 20 mM Tris-HCl in 0.1M NaCl at pH 7.4) was used for experimentation. Fibrinogen deficient plasma (Affinity Biologicals, Inc., Ancaster, Ontario, Canada) anticoagulated with sodium citrate was used in experiments investigating the effects of CORM-2 on fibrinogen. […] CORM-2 and dimethyl sulfoxide (DMSO) were obtained from Sigma-Aldrich, St. Louis, Mo.
Exposure of purified prothrombin to CORM-2. In order to determine if pre-exposure of prothrombin with CORM-2 would enhance coagulation kinetics in prothrombin deficient plasma, 396 μL of pure prothrombin solution was combined with 4 μL of either DMSO or CORM-2 in DMSO for a final concentration of 0 or 100 μM CORM-2. This solution was incubated for 5 min at 37° C. prior to being added to prothrombin deficient plasma for thrombelastographic analyses. A volume of 3.1 μL of incubated solution was added to the final reaction mixture subsequently presented for a final prothrombin activity of 1 U/mL.
Prothrombin deficient plasma experiments. The final volume for experiments involving prothrombin deficient plasma was 359.1-360.7 μL. In experiments involving pre-exposure of prothrombin to 0 or 100 μM CORM-2 (n=7 per concentration), the sample consisted of 326 μL of prothrombin deficient plasma, 3.1 μL of prothrombin solution, 10 μL of tissue factor reagent (0.1% final concentration in dH2O; Instrumentation Laboratory, Lexington, Mass.), and 20 μL of 200 mM CaCl2. In experiments involving simple CORM-2 addition (positive control) to the reactants, the sample mixture consisted of 324 μL of prothrombin deficient plasma, 3.1 μL of prothrombin solution, 3.6 μL of DMSO or CORM-2 in DMSO (final CORM-2 concentration 0 or 100 μM, n=8 per concentration), 10 μL of tissue factor reagent (0.1% final concentration), and 20 μl of 200 mM CaCl2.
Thrombelastographic monitoring. Plasma sample mixtures were placed in a disposable cup in a computer-controlled THROMBELASTOGRAPH® hemostasis system (Model 5000, Haemoscope Corp., Niles, Ill.), with addition of CaCl2 as the last step to initiate clotting. Data were collected until clot strength stabilized. The following previously described variables (Examples 1-3) were determined at 37° C.: Time to maximum rate of thrombus generation (TMRTG): This is the time interval (sec) observed prior to maximum speed of clot growth. Maximum rate of thrombus generation (MRTG): This is the maximum velocity of clot growth observed (dynes/cm^2/sec). Total Thrombus Generation (TTG): This is the total area under the velocity curve during clot growth (dynes/cm^2), representing the amount of clot strength generated during clot growth.
Statistical Analyses. Data obtained from experiments involving prothrombin deficient plasma are presented as mean±SD. Typically, n=6-8 provides statistical power >0.8 in similar analyses (Examples 1 and 2). Analyses of the effects of CORM-2 on thrombelastographic variables were conducted using unpaired, two-tailed Student's t-tests. A P value of <0.05 was considered significant. Graphical representation of the thrombelastographic data derived from experiments with […] deficient plasma was generated with commercially available software (SigmaPlot 11.0, Systat Software, Inc., San Jose, Calif.). Coagulation kinetic model equations were derived with the same software. The difference between the mean values of MRTG or TTG in samples exposed to 0 or 100 μM CORM-2 were determined and expressed as percent difference secondary to CORM-2 exposure in the […] deficient plasma experiments.

[1] abbreviates: 100 μM CORM-2 added to prothrombin deficient plasma mixed with prothrombin, n=8.
Where [2] appears, read: purified prothrombin pre-exposed to 100 μM CORM-2, then added to prothrombin deficient plasma, n=7.

Structures are written as SMILES.

As to `[C-]#[O+].[C-]#[O+].[C-]#[O+].[C-]#[O+].[C-]#[O+].[C-]#[O+].[Cl][Ru][Cl].[Cl][Ru][Cl]` [CORM-2, tricarbonyldichlororuthenium (II) dimer], under setting [1], the “MRTG (maximum rate of thrombus generation)” value worked out at 9.17 ± 0.36 dynes/cm^2/sec, the “TMRTG (time to maximum rate of thrombus generation)” value was 1.85 ± 0.04 min and the “TTG (total thrombus generation)” value is recorded as 152 ± 7 dynes/cm^2. Under setting [2], the “MRTG (maximum rate of thrombus generation)” value was 4.65 ± 0.99 dynes/cm^2/sec, the “TMRTG (time to maximum rate of thrombus generation)” value is given as 2.15 ± 0.56 min and the “TTG (total thrombus generation)” value came to 88 ± 3 dynes/cm^2.
